Measured values as given in patent publication US20120270848A1, “Novel Compositions and Therapeutic Methods Using Same” (Galleon Pharmaceuticals, Inc., priority 2010, published 2012).
Converted amounts (≈) assume the structure as drawn. “And” between values parts separate entries of the source, which are not always exact repeats. Equal values may be shown once. “Also recorded” adds a separate entry of the source.

Assays:
[1] = test system: hypoxic ventilatory response in the rat; experiment: Hypoxic ventilatory response to 12% O2, plethysmography; format: in vivo; conditions: IV infusion (Table 5: 1, 3 mg/kg/min; text: 3 mg/kg/min), compared to vehicle
Protocol: Rats with a pre-cannulated jugular vein (for administrating drugs) were acclimated to plethysmography chambers for a minimum of 60 minutes, or until animals were no longer restless. Each animal was dosed with (−)-doxapram, (+)-doxapram, or racemic doxapram via infusion into the jugular vein catheter over a period of 15 minutes, at 3 mg/kg/min at 0.020 ml/min based on a 300 gram rat. After a period of 15 minutes, an isocapnic, hypoxic mixture (12% O2 balanced N2) was administered into all chambers using a gas mixer (CWE inc. GSM-3 gas mixer) for 15 minutes. After 15 minutes, the gas mixer was turned off, resulting in normal room air pumped into the chambers. Ten minutes later, the infusion pumps were turned off, and all animals were given a 15 minute recovery period, followed by a post-study analysis of rat health and behavior. […] The small increases in minute ventilation seen towards the end of the experiment in the (−)-doxapram group (i.e. T20-T55) were associated with behavioral toxicities and therefore cannot be distinguished from non-specific side effects. Results are illustrated in FIG. 5 and Table 5.

[2] = Solubility in EtOH/MeOH for the chromatographic separation; format: physicochemical; conditions: organic solvent or mixture
Protocol: With stirring and sonication, 2.51 g of racemic doxapram were dissolved in approximately 200 mL EtOH/MeOH (50/50 v/v). The solution was injected onto the chromatographic column using the conditions illustrated above. The injection volume was 4 mL, performed every 7 minutes. The appropriate fractions collected from the chromatographic process were concentrated using rotary evaporators at 40° C. and 50 mbar. After solvent removal, the products were dried in a vacuum oven at 40° C. to obtain (−)-doxapram (1.19 g, 95% yield, ?99% e.e.) and (+)-doxapram (1.34 g, 107% yield, ≧99% e.e.). The experimental recovery of (+)-doxapram may have been high due to residual DMEA in the system.
A sample of 19.94 g of racemic doxapram was dissolved in approximately 1.0 L of EtOH/MeOH 80/20 (v/v) with stirring and sonication. The injection volume was 4 mL, and injection was performed every 5.83 min. The appropriate fractions collected from the chromatographic process were concentrated using rotary evaporators at 40° C. and 50 mbar. After solvent removal, the products were dried in a vacuum oven at 40° C. to obtain (−)-doxapram (8.47 g, 85% yield, ≧99% e.e.) and (+)-doxapram (12.50 g, 125% yield, ≧99% e.e.). The experimental recovery of (+)-doxapram may have been high due to residual DMEA in the system.

[3] = test system: spontaneously breathing rats; experiment: In vivo spirometry: cumulative dose-dependent ventilatory response (maximum peak minute ventilation); design: species or system rat
Protocol: (§1) All surgical procedures were performed under anesthesia induced by 2% isoflurane in compressed medical grade air. With rats in supine position, the right femoral vein was catheterized using polyethylene tubing (PE-50). This catheter was used for fluid and drug administration. Simultaneously, the right femoral artery was also catheterized for monitoring blood pressure. In order to measure the respiratory parameters in spontaneously breathing rats, trachea was intubated using 13 gauge tracheal tube (2.5 mm ID, Instech Solomon, Pa.).
After establishing a stable base-line at 1.5% isoflurane, cumulative dose-dependent (1, 3, 10 and 30 mg/kg) ventilatory responses to (−)-doxapram, (+)-doxapram, or racemic doxapram were generated from spontaneously breathing rats. Maximum peak minute ventilatory (MV) values at each dose from corresponding drug were calculated and used for generating ED50 values. Results are illustrated in Table 3 and FIG. 1. All the specific ventilatory stimulant activity of racemic doxapram was associated with the (+)-enantiomer.

[4] = test system: opioid-induced respiratory depression in the rat; experiment: Opioid-induced changes in arterial blood gas parameters, arterial blood gas analysis; format: in vivo; conditions: for Arterial Blood Gases - OIRD, pCO2 (mmHg) and saO2 (%): reversal of opioid-induced respiratory depression: 3 mg/kg/min IV infusion after 10 mg/kg IV morphine, compared to vehicle; for PaCO2: % reversal / PaO2: % reversal / pH % reversal / saO2: % reversal: 3.0 mpk/min IV infusion after morphine 10 mg/kg, vs composite vehicle group, 15 min into 20 min infusion
Protocol: Rats with pre-cannulated jugular vein and femoral arterial catheters (for administrating drugs and obtaining blood samples respectively) were obtained from Harlan laboratories and kept at the animal facility at Galleon Pharmaceuticals until the experimental procedures. All animals experiments were carried out according to the US law on animals care and use approved by Galleon Pharmaceuticals IACUC. Each animal was dosed with morphine sulfate (10 mg/kg), dissolved in saline at a concentration of 10 mg/ml, via injection into the jugular vein over a period of 20 seconds with a 20 second flush of 0.9% NaCl saline. Prior to morphine administration, two 250 μL samples of arterial blood were aspirated from the femoral artery into a pre-heparinized syringe. The samples were analyzed on Radiometer's ABL Flex 800, where pO2, pCO2, pH, saO2 and other parameters were recorded. Aspirated volumes of arterial blood were replaced by room temperature sterile saline (˜300 μL) slowly flushed back into the femoral arterial catheter of the rodent to prevent anemia and/or dehydration. Morphine was then administered and 2 minutes later another blood sample was taken. After a period of 5 min from the administration of morphine, (−)-doxapram, (+)-doxapram or racemic doxapram (15 mg/mL) was administered via infusion into the jugular vein at a rate of 60 μL/min/300 gram rat. The infusion started at t=15 minutes and ended at t=35 minutes. Arterial blood gas analysis occurred at time points t=17, 25, 30, 37, 45, and 50 minutes. […] The small improvements in blood gas parameters seen towards the end of the experiment in the (−)-doxapram group were associated with behavioral toxicities and therefore cannot be distinguished from non-specific side effects. Results are illustrated in Table 4 and FIGS. 3-4.

rat = experiment: Cardio-respiratory traces after IV bolus (respiratory flow, volumes, minute ventilation, blood pressure); format: in vivo
Protocol: as §1
The procedure outlined in Example 1 was used herein. […] Results are illustrated in FIG. 6.
The procedure described in Example 1 was used herein to evaluate the effect of (−)-doxapram on mean arterial blood pressure (MAP) in the rat. […] Results are illustrated in FIG. 8.

[5] = test system: opioid-induced respiratory depression in the rat; experiment: Opioid-induced respiratory depression, plethysmography (minute ventilation); format: in vivo; conditions: 1, 3 mg/kg/min IV infusion after 10 mg/kg IV morphine; compared to vehicle
Protocol: All animal experiments were carried out according to the US law on animals care and use approved by Galleon Pharmaceuticals Institutional Animal Care and Use Committee (IACUC). Rats with pre-cannulated jugular vein (for administrating drugs) were acclimated to plethysmography chambers for a minimum of 60 minutes, or until animals were no longer restless. Each animal was dosed with morphine sulfate (10 mg/kg), dissolved in sterile water at a concentration of 10 mg/mL (supplied by Baxter Healthcare Corporation), via injection into the jugular vein catheter over a period of 5-10 seconds. After a period of 5 min, (−)-doxapram, (+)-doxapram, or racemic doxapram ([…]) was administered via infusion into the jugular vein at a rate of 0.020 mL/min for a 300 gram rat. Behavioral observations were made though the course of the experiment. After 20 min of infusion at 1 mg/kg/min, the infusion rates were tripled from 0.020 mL/min to 0.060 mL/min for all rats, based on body weight. After 20 minutes of infusion at this dose, the infusion pumps were turned off, and all animals were given a 20 minute recovery period, followed by a post-study analysis of rat health and behavior. […] The small increase in minute ventilation seen towards the end of the experiment in the (−)-doxapram group was associated with behavioral toxicities and therefore cannot be distinguished from non-specific side effects. […]

[6] = Comparative IV pharmacokinetics of a 20 min infusion; format: in vivo; conditions: 20 min infusion of 3 mg/kg/min IV
Protocol: FIG. 9 is a set of graphs illustrating the IV pharmacokinetics of a 20-minute infusion (from 15 minutes to 35 minutes) of 3 mg/kg/min IV (+)-doxapram and (−)-doxapram. The upper panel pharmacokinetic data was plotted on a linear y-axis, the lower panel represents the same data plotted on a log y-axis.
The difference in efficacy and adverse events seen between the enantiomers is therefore due to genuine differences in the intrinsic pharmacodynamics (i.e. pharmacology and side effects profiles) of the enantiomers, as opposed to differential exposures/pharmacokinetics. Results are illustrated in FIG. 9.

rats = experiment: Observations of animal behavior and adverse effects; format: in vivo, rat
From the text: In Examples 1-7 described above, all rats are observed for behavioral changes and adverse effects, as recognized by those skilled in the art. Such effects include central nervous system and motor effects such as impairment, sedation, and convulsive potential, and mortality. Other effects related to bodily functions are also observable and may include changes in breathing, urination, defecation, posture, and normal cage activities (i.e., grooming, exploring, eating, etc.). […]

| SMILES | Plethysmography (MV), Naïve and HVR: potentiation of hypoxic ventilatory response [1] | solubility ([2]; in EtOH/MeOH 80/20 (v/v)) [mg/mL] | solubility ([2]; in EtOH/MeOH (50/50 v/v)) [mg/mL] | ED50 ([3]; Rattus norvegicus, IV bolus, cumulative doses 1, 3, 10 and 30 mg/kg, 1.5% isoflurane, maximum peak MV values, read-out: ED50 (mg/kg IV), increase in minute ventilation (MV)) [mg/kg] | potency relative to (+)-enantiomer ([3]; ventilatory stimulant activity, rat IV) | Arterial Blood Gases - OIRD, pCO2 (mmHg) and saO2 (%): reversal of opioid-induced respiratory depression [4] | PaCO2: % reversal [4] [%] | PaO2: % reversal [4] [%] | pH % reversal [4] [%] | saO2: % reversal [4] [%] | effect on arterial blood pressure and arrhythmias (rat; 30 mg/kg IV bolus) | effect on respiratory flow, inspiratory and expiratory volume, minute ventilation (rat; 30 mg/kg IV bolus) | Cardiopulmonary response: mean arterial pressure (MAP) (rat; E-Phys, ≧10 mg/kg IV bolus) | ED50 (mg/kg IV), increase in minute ventilation (MV) ([3]; IV bolus, cumulative doses 1, 3, 10 and 30 mg/kg, 1.5% isoflurane, maximum peak MV values) | Plethysmography - OIRD (MV): reversal of opioid-induced respiratory depression [5] | plasma exposure (time course, maximum concentration, AUC, washout), enantiomer vs enantiomer [6] | Death (animals out of group of 6) (rats; Pleth., 30 mg/kg IV bolus, 30 mg/kg) | adverse effects across the studies (rats; rat, in vivo, iv) | Clonic movements (animals out of group of 6) (rats; rat, in vivo, iv, 3 mg/kg) | Hunching, static, increased urination & defecation (animals out of group of 6) (rats; rat, in vivo, iv, 3 mg/kg) |
| --- | --- | --- | --- | --- | --- | --- | --- | --- | --- | --- | --- | --- | --- | --- | --- | --- | --- | --- | --- | --- |
| CCN1CC(CCN2CCOCC2)C(c2ccccc2)(c2ccccc2)C1=O (racemic) [doxapram, 1-ethyl-4-(2-morphilinoethyl)-3,3-diphenyl-2-pyrrolidinone, reference compound] | significantly potentiated the hypoxic ventilatory response | 19.9 (≈ 52.6 mM) | 12.6 (≈ 33.3 mM) | 4.8 | approximately 50% | significantly reverse opioid-induced respiratory depression | 90 | 22 | 58 | 33 |  |  |  |  |  |  |  |  |  |  |
| CCN1CC(CCN2CCOCC2)C(c2ccccc2)(c2ccccc2)C1=O (single isomer, unassigned; (+)) [(+)-doxapram, (+)-enantiomer of 1-ethyl-4-(2-morphilinoethyl)-3,3-diphenyl-2-pyrrolidinone] | significantly potentiated the hypoxic ventilatory response; also recorded: Active |  |  |  |  | significantly reverse opioid-induced respiratory depression; also recorded: Active | 79 | 41 | 49 | 41 | only a minimal reduction in blood pressure without associated arrhythmias | increased respiratory flow, inspiratory and expiratory volume, as well as enhanced minute ventilation | MAP ↓ | 2.2 mg/kg and 2.1 mg/kg | significantly reverses opioid-induced respiratory depression; also recorded: Active | directly comparable time course, maximum concentration and exposure (AUC) | 0/6 | did not | 0/6 | 0/6 |
